According to US4820694A, “Modifications of 3-O-demethylmycinose in macrocin and lactenocin” (priority 1986, dated 1989):
In brackets after ≈: the same amount, converted by molar mass. Like-named read-outs stand apart in the source and are kept apart here.

Assays:
[1] = tested on: Escherichia coli EC14; experiment: standard agar-dilution MIC assay; format: cell-based
Method: (§1) The MIC's in Table III were determined by standard agar-dilution assays. The MIC's in Table IV were obtained using conventional brothdilution microtiter tests.

[2] = tested on: Haemophilus influenzae 76; experiment: standard agar-dilution MIC assay; format: cell-based; conditions: Haemophilus influenzae, 76
Method: as §1

[3] = tested on: Haemophilus influenzae C.L.; experiment: standard agar-dilution MIC assay; format: cell-based; conditions: Haemophilus influenzae
Method: as §1

[4] = tested on: Klebsiella pneumoniae X68; experiment: standard agar-dilution MIC assay; format: cell-based; conditions: Klebsiella pneumoniae, X68
Method: as §1

[5] = tested on: Pseudomonas aeruginosa X239; experiment: standard agar-dilution MIC assay; format: cell-based; conditions: Pseudomonas aeruginosa, X239
Method: as §1

[6] = tested on: Staphylococcus aureus V41; experiment: standard agar-dilution MIC assay; format: cell-based; conditions: Staphylococcus aureus, V41
Method: as §1

[7] = tested on: Staphylococcus aureus X1.1; experiment: standard agar-dilution MIC assay; format: cell-based; conditions: Staphylococcus aureus, X1.1
Method: as §1

[8] = tested on: Staphylococcus aureus X400; experiment: standard agar-dilution MIC assay; format: cell-based; conditions: Staphylococcus aureus, X400
Method: as §1

[9] = tested on: Staphylococcus epidermidis EPI1; experiment: standard agar-dilution MIC assay; format: cell-based; conditions: Staphylococcus epidermidis, EPI1
Method: as §1

[10] = tested on: Streptococcus Group D 9960; experiment: standard agar-dilution MIC assay; format: cell-based; conditions: GROUPD9960, read-out: MIC
Method: as §1

[11] = tested on: Streptococcus Group D X66; experiment: standard agar-dilution MIC assay; format: cell-based; conditions: read-out: MIC
Method: as §1

[12] = tested on: Streptococcus pyogenes C203; experiment: standard agar-dilution MIC assay; format: cell-based; conditions: Streptococcus pyogenes, C203
Method: as §1

[13] = tested on: Staphylococcus aureus S13E; experiment: microbe, parasite or virus in culture; format: cell-based; conditions: Staphylococcus aureus, S13E
Method: as §1

[14] = tested on: Streptococcus pneumoniae Park I; experiment: microbe, parasite or virus in culture; format: cell-based; conditions: Streptococcus pneumoniae
Method: as §1

[15] = tested on: Bordetella bronchiseptica; experiment: broth-dilution microtiter MIC test; format: cell-based; conditions: Bordetella bronchiseptica
Method: as §1

[16] = tested on: Mycoplasma gallisepticum 15E; experiment: broth-dilution microtiter MIC test; format: cell-based; conditions: Mycoplasmoides gallisepticum, 15E
Method: as §1

[17] = tested on: Mycoplasma gallisepticum 29C; experiment: broth-dilution microtiter MIC test; format: cell-based; conditions: Mycoplasmoides gallisepticum, 29C
Method: as §1

[18] = tested on: Mycoplasma gallisepticum 36H; experiment: broth-dilution microtiter MIC test; format: cell-based; conditions: Mycoplasmoides gallisepticum, 36H
Method: as §1

[19] = tested on: Mycoplasma hyorhinis 29E; experiment: broth-dilution microtiter MIC test; format: cell-based; conditions: Mycoplasma, 29E
Method: as §1

[20] = tested on: Mycoplasma synoviae 40A; experiment: broth-dilution microtiter MIC test; format: cell-based; conditions: Mycoplasmopsis synoviae, 40A
Method: as §1

[21] = tested on: Pasteurella hemolytica 22C; experiment: broth-dilution microtiter MIC test; format: cell-based; conditions: Pasteurella, 22C
Method: as §1

[22] = tested on: Pasteurella hemolytica 23C; experiment: broth-dilution microtiter MIC test; format: cell-based; conditions: Pasteurella, 23C
Method: as §1

[23] = tested on: Pasteurella hemolytica 41D; experiment: broth-dilution microtiter MIC test; format: cell-based; conditions: Pasteurella, 41D
Method: as §1

[24] = tested on: Pasteurella multocida 17E; experiment: broth-dilution microtiter MIC test; format: cell-based; conditions: Pasteurella multocida, 17E
Method: as §1

[25] = tested on: Pasteurella multocida 22A; experiment: broth-dilution microtiter MIC test; format: cell-based; conditions: Pasteurella multocida, 22A
Method: as §1

[26] = tested on: Pasteurella multocida 40G; experiment: broth-dilution microtiter MIC test; format: cell-based; conditions: Pasteurella multocida, 40G
Method: as §1

[27] = tested on: Pasteurella multocida 60A; experiment: broth-dilution microtiter MIC test; format: cell-based; conditions: Pasteurella multocida, 60A
Method: as §1

[28] = tested on: Pasteurella multocida 68C; experiment: broth-dilution microtiter MIC test; format: cell-based; conditions: Pasteurella multocida, 68C
Method: as §1

[29] = tested on: Staphylococcus aureus 19C; experiment: broth-dilution microtiter MIC test; format: cell-based; conditions: Staphylococcus aureus, 19C
Method: as §1

[30] = tested on: Streptococcus sp. 19F; experiment: broth-dilution microtiter MIC test; format: cell-based; conditions: Streptococcus, SP.19F
Method: as §1

[31] = tested on: Streptococcus pyogenes C203; experiment: protection of mice experimentally infected with S. pyogenes C203; format: in vivo; conditions: C203, sc, Subcutaneous, mice, mg/kg × 2, doses given 1 and 4 hours postinfection, read-out: ED50
How it was run: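 Mice experimentally infected with S. pyogenes C203 got two doses of test compound, at 1 and 4 h postinfection. The ED50 is the dose in mg/kg (per dose, given twice) that protected 50% of the animals.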

[32] = tested on: Pasteurella multocida; experiment: Pasteurella multocida infection in one-day-old chicks; format: in vivo; conditions: subcutaneously, 30 mg/kg × 2, 1 and 4 hours post-challenge
Method: Some of the formula 1 compounds have also shown in vivo antibacterial activity against infections induced by Gram-negative bacteria. Table VI summarizes the results of tests in which illustrative compounds were evaluated against a Pasteurella infection in one-day-old chicks. The compounds were administered by subcutaneous injection at a dosage of 30 mg/kg, 1 and 4 hours post-challenge of the chicks with Pasteurella multocida (0.1 ml of a 10^-4 dilution of a twenty-hour tryptose broth culture of an avian P. multocida given subcutaneously). In these tests, unless indicated otherwise, all non-medicated infected chicks died within 24 hours of Pasteurella challenge.
^a Administered subcutaneously; 30 mg/kg × 2

[33] = tested on: Staphylococcus epidermidis EP12; experiment: standard agar-dilution MIC assay; format: cell-based
Method: as §1

[34] = broth-dilution microtiter, read-out: MIC

Structure (SMILES): CCC1OC(=O)CC(O)C(C)C(OC2OC(C)C(O)C(N(C)C)C2OC(C)=O)C(CC=O)CC(C)C(=O)C=CC(C)=CC1COC1OC(C)C(OC(=O)COc2ccccc2)C(O)C1OC (stereo not drawn) [Compound 33, 2'-O-Acetyl-4"-O-phenoxyacetyl-lactenocin]
- MIC ([1]; agar-dilution, read-out: MIC): > 128 µg/mL
- MIC ([2]; agar-dilution, Ampicillin-resistant strain, read-out: MIC): 8 µg/mL (≈ 8.56 µM)
- MIC ([3]; agar-dilution, Ampicillin-sensitive strain, read-out: MIC): 8 µg/mL (≈ 8.56 µM)
- MIC ([4]; agar-dilution, read-out: MIC): > 128 µg/mL
- MIC ([5]; agar-dilution, read-out: MIC): > 128 µg/mL
- MIC [6]: 1 µg/mL (≈ 1.07 µM)
- MIC [7]: 1 µg/mL (≈ 1.07 µM)
- MIC ([8]; agar-dilution, Methicillin-resistant strain, read-out: MIC): 2 µg/mL (≈ 2.14 µM)
- MIC [9]: 1 µg/mL (≈ 1.07 µM)
- MIC [10]: 1 µg/mL (≈ 1.07 µM)
- MIC [11]: 1 µg/mL (≈ 1.07 µM)
- MIC [12]: 0.5 µg/mL (≈ 0.535 µM)
- MIC [13]: 1 µg/mL (≈ 1.07 µM)
- MIC ([14]; agar-dilution, read-out: MIC): 0.25 µg/mL (≈ 0.268 µM)
- MIC [15]: 50 µg/mL (≈ 53.5 µM)
- MIC [16, 34]: 12.5 µg/mL (≈ 13.4 µM)
- MIC [17, 34]: 0.39 µg/mL (≈ 0.418 µM)
- MIC [18, 34]: 12.5 µg/mL (≈ 13.4 µM)
- MIC [19]: 3.12 µg/mL (≈ 3.34 µM)
- MIC [20, 34]: 0.39 µg/mL (≈ 0.418 µM)
- MIC [21, 34]: 12.5 µg/mL (≈ 13.4 µM)
- MIC [22, 34]: 12.5 µg/mL (≈ 13.4 µM)
- MIC [23, 34]: 12.5 µg/mL (≈ 13.4 µM)
- MIC ([24]; broth-dilution microtiter, Bovine isolate, read-out: MIC): 12.5 µg/mL (≈ 13.4 µM)
- MIC [25, 34]: 12.5 µg/mL (≈ 13.4 µM)
- MIC [26, 34]: 12.5 µg/mL (≈ 13.4 µM)
- MIC ([27]; broth-dilution microtiter, Avian isolate, read-out: MIC): 6.25 µg/mL (≈ 6.69 µM)
- MIC [28, 34]: 6.25 µg/mL (≈ 6.69 µM)
- MIC [29]: 0.78 µg/mL (≈ 0.835 µM)
- MIC [30, 34]: 0.39 µg/mL (≈ 0.418 µM)
- ED50 [31]: 1.9 mg/kg
- Number of Deaths/Number Treated [32]: 8/10

Structure (SMILES): CCC1OC(=O)CC(O)C(C)C(OC2OC(C)C(OC3CC(C)(O)C(O)C(C)O3)C(N(C)C)C2OC(C)=O)C(CC=O)CC(C)C(=O)C=CC(C)=CC1COC1OC(C)C(OC(=O)Cc2ccccc2)C(O)C1OC (stereo not drawn) [Compound 9, 2'-O-Acetyl-4'"-O-phenylacetyl-macrocin]
- MIC [1]: > 128 µg/mL
- MIC [2]: 32 µg/mL (≈ 30.1 µM)
- MIC [3]: 32 µg/mL (≈ 30.1 µM)
- MIC [4]: > 128 µg/mL
- MIC [5]: > 128 µg/mL
- MIC [6]: 1 µg/mL (≈ 0.941 µM)
- MIC [7]: 1 µg/mL (≈ 0.941 µM)
- MIC [8]: 2 µg/mL (≈ 1.88 µM)
- MIC [33]: 2 µg/mL (≈ 1.88 µM)
- MIC [9]: 2 µg/mL (≈ 1.88 µM)
- MIC [10]: 0.5 µg/mL (≈ 0.471 µM)
- MIC [11]: 1 µg/mL (≈ 0.941 µM)
- MIC [12]: 0.5 µg/mL (≈ 0.471 µM)
- MIC [13]: 2 µg/mL (≈ 1.88 µM)
- MIC [14]: 0.25 µg/mL (≈ 0.235 µM)
- MIC [15]: > 50 µg/mL
- MIC [16]: 12.5 µg/mL (≈ 11.8 µM)
- MIC [17]: 0.78 µg/mL (≈ 0.734 µM)
- MIC [18]: 12.5 µg/mL (≈ 11.8 µM)
- MIC [19]: 1.56 µg/mL (≈ 1.47 µM)
- MIC [21]: > 50 µg/mL
- MIC [22]: > 50 µg/mL
- MIC [23]: > 50 µg/mL
- MIC [24]: > 50 µg/mL
- MIC [25]: > 50 µg/mL
- MIC [26]: > 50 µg/mL
- MIC [27]: > 50 µg/mL
- MIC [28]: > 50 µg/mL
- MIC [29]: 3.12 µg/mL (≈ 2.94 µM)
- MIC [30]: 1.56 µg/mL (≈ 1.47 µM)
- Number of Deaths/Number Treated [32]: 10/10

Structure (SMILES): CCC1OC(=O)CC(O)C(C)C(OC2OC(C)C(O)C(N(C)C)C2OC(C)=O)C(CC=O)CC(C)C(=O)C=CC(C)=CC1COC1OC(C)C(OC(=O)Cc2ccccc2)C(O)C1OC (stereo not drawn) [Compound 29, 2'-O-Acetyl-4"-O-phenylacetyl-lactenocin]
- MIC [1]: > 128 µg/mL
- MIC [4]: > 128 µg/mL
- MIC [5]: > 128 µg/mL
- MIC [6]: 1 µg/mL (≈ 1.09 µM)
- MIC [7]: 1 µg/mL (≈ 1.09 µM)
- MIC [8]: 1 µg/mL (≈ 1.09 µM)
- MIC [33]: 1 µg/mL (≈ 1.09 µM)
- MIC [9]: 1 µg/mL (≈ 1.09 µM)
- MIC [10]: 1 µg/mL (≈ 1.09 µM)
- MIC [11]: 1 µg/mL (≈ 1.09 µM)
- MIC [12]: 0.5 µg/mL (≈ 0.545 µM)
- MIC [13]: 1 µg/mL (≈ 1.09 µM)
- MIC [14]: 0.25 µg/mL (≈ 0.272 µM)
- MIC [15]: > 50 µg/mL
- MIC [16]: 12.5 µg/mL (≈ 13.6 µM)
- MIC [17]: 0.195 µg/mL (≈ 0.212 µM)
- MIC [18]: 6.25 µg/mL (≈ 6.81 µM)
- MIC [19]: 1.56 µg/mL (≈ 1.7 µM)
- MIC [20]: 0.195 µg/mL (≈ 0.212 µM)
- MIC [21]: 12.5 µg/mL (≈ 13.6 µM)
- MIC [22]: 12.5 µg/mL (≈ 13.6 µM)
- MIC [23]: 12.5 µg/mL (≈ 13.6 µM)
- MIC [24]: 12.5 µg/mL (≈ 13.6 µM)
- MIC [25]: 25 µg/mL (≈ 27.2 µM)
- MIC [26]: 25 µg/mL (≈ 27.2 µM)
- MIC [27]: 25 µg/mL (≈ 27.2 µM)
- MIC [28]: 6.25 µg/mL (≈ 6.81 µM)
- MIC [29]: 1.56 µg/mL (≈ 1.7 µM)
- MIC [30]: 0.39 µg/mL (≈ 0.425 µM)
- Number of Deaths/Number Treated [32]: 9/10
